In patent US12329737B2, “Dendrilla membranosa compounds, derivatives thereof, and uses thereof” (UNIVERSITY OF SOUTH FLORIDA, priority 2018, dated 2025):
Converted amounts (≈) assume the structure as drawn.

Legend:
J774A.1 = assay: mammalian cytotoxicity assay; format: cell-based
MRSA = assay: standard MRSA assay (MIC); format: cell-based; conditions: Staphylococcus aureus
MRSA biofilm = assay: standard biofilm assay; format: cell-based, Staphylococcus aureus
[1] = tested on: multidrug resistant S. aureus biofilm; assay: minimum biofilm eradication concentration (MBEC), MRSA biofilm; format: cell-based; conditions: for MBEC90: 90% of population eradicated compared to no treatment
Description: Each sample tested in triplicate for all concentrations. Calculated based on no drug controls and represented as a log 10 scale. Error=±SEM. MBEC 90/50: level to which 90% or 50% of the population was eradicated compared to no treatment.

| SMILES | Cytotoxicity (μM) against strain J774A.1 (J774A.1) [µM] | other results |
| --- | --- | --- |
| CC(=O)O[C@@H]1OC2OC(=O)[C@H](C)C3=C([C@@]4(C)CCCC(C)(C)C4)CCC1C32 (stereo partly drawn) [Compound 2, tetrahydroaplysulphurin] | >133 |  |
| CO[C@H]1OC(=O)[C@H](C)c2c([C@@]3(C)CCCC(C)(C)C3)ccc(C=O)c21 [Compound 5, membranoid A] | 54.6 |  |
| CC(=O)O[C@@H]1OC2OC(=O)C3=C(C)C([C@@]4(C)CCCC(C)(C)C4)CCC1C32 (stereo partly drawn) [Compound 24, Darwinolide] | 20.13 | MIC (MRSA): ~133 µM (≈ 50 µg/mL); MIC in a standard biofilm assay (MRSA biofilm): 33.2 µM (≈ 12.5 µg/mL); MBEC90 [1]: 35 mg/mL; mammalian (J773) toxicity (J774A.1; J773 cells, mammalian cytotoxicity assay): 73.4 µM |
| CC(=O)O[C@@H]1O[C@H](OC(C)=O)[C@H]2C(=O)[C@@H]([C@@]3(C)CCCC(C)(C)C3)CC[C@@H]12 [Compound 19, keto-9, 11-dihydrogracilin A] |  | MBEC90 [1]: 50 mg/mL |
| COC(=O)[C@H](C)C1=C([C@@]2(C)CCCC(C)(C)C2)CCC2COC(=O)C12 (stereo partly drawn) [Compound 4, tetrahydromembranolide] | 64.9 |  |
| C[C@H]1C(=O)O[C@@H](O)c2c(C=O)ccc([C@@]3(C)CCCC(C)(C)C3)c21 [Compound 10, membranoid G] | >151 |  |
| CC(=O)O[C@@H]1OC2OC(=O)[C@H](C)[C@@]34OO[C@@]([C@@]5(C)CCCC(C)(C)C5)(CCC1C23)O4 (stereo partly drawn) [Compound 18, Tetrahydroaplytrioxolane] |  | MRSA biofilm bioactivity [1]: lacked MRSA biofilm bioactivity |
| CO[C@@H]1O[C@@H](OC(C)=O)c2ccc([C@@]3(C)CCCC(C)(C)C3)c([C@@H](C)C(=O)O)c21 [Compound 11, membranoid X] | 62.9 |  |
| COC(=O)[C@H](C)c1c([C@@]2(C)CCCC(C)(C)C2)ccc2c1C(=O)OC2 [Compound 3, membranolide] | 76.8 | MBEC90 [1]: < 25 mg/mL |
| COC(=O)[C@H](C)c1c([C@@]2(C)CCCC(C)(C)C2)ccc2c1[C@H](O)OC2=O [Compound 12, membranoid Y] | >139 |  |
| CO[C@H]1O[C@@H](OC)c2c1ccc([C@@]1(C)CCCC(C)(C)C1)c2[C@@H](C)C(=O)O [Compound 9, membranoid E] | 95 |  |
| CCC1=C(C=O)[C@H](C(=O)OC)CC[C@@H]1[C@@]1(C)CCCC(C)(C)C1 [Compound 17] |  | MBEC90 [1]: 50 mg/mL |
| CC(=O)O[C@@H]1OC2OC(=O)[C@H](C)c3c([C@@]4(C)CCCC(C)(C)C4)ccc1c32 (stereo partly drawn) [Compound 1, aplysulphurin] | 12.3 |  |
| CO[C@@H]1O[C@@H](OC)c2c1ccc([C@@]1(C)CCCC(C)(C)C1)c2[C@@H](C)C(=O)O [Compound 7, membranoid C] | >133 | MRSA biofilm bioactivity [1]: lacked MRSA biofilm bioactivity |
| CO[C@@H]1O[C@H](OC)c2c1ccc([C@@]1(C)CCCC(C)(C)C1)c2[C@@H](C)C(=O)O [Compound 8, membranoid D] | >133 | MRSA biofilm bioactivity [1]: lacked MRSA biofilm bioactivity |
| CO[C@H]1O[C@H](OC)c2c1ccc([C@@]1(C)CCCC(C)(C)C1)c2[C@@H](C)C(=O)O [Compound 6, membranoid B] | >133 |  |
| C[C@@H](CO)c1c([C@@]2(C)CCCC(C)(C)C2)ccc(CO)c1CO [Compound 20, Mebranolide triol] |  | MRSA biofilm bioactivity [1]: lacked MRSA biofilm bioactivity |
